Here are results for 18 compounds from publication PMC8012719 (Frontiers in Pharmacology, 2021).

Converted amounts (≈) assume the structure as drawn. “And” between values parts separate entries of the source, which are not always exact repeats. Equal entries are not always repeated. Structures can show the parent of a compound that is named as a salt. Where two headings read alike, the source gives them in different places.

Data set [1] has as its system RABV CVS strain. Description: microbe, parasite or virus in culture. The settings on record: for EC50: read-out: CVS EC50. It is filed as cell-based, rabies virus.
A further data set concerns Rabies virus CVS strain. The settings on record: mouse, in vivo.
In data set [2] the test system is RABV. Kind of data set: microbe, parasite or virus in culture. It is filed as cell-based. The settings on record: Lyssavirus rabies, in Felis catus.
A short description of data set [3]: in vitro. The note with it: cat.
In data set [4] the test system is pRABV (pseudovirus enveloped by the RABV glycoprotein G). Description: microbe, parasite or virus in culture. In kind it is cell-based, rabies virus. The note with it: for EC50: read-out: pRABV EC50.
For data set [5], the system named is pVSV (pseudovirus expressing a vesicular stomatitis virus envelope glycoprotein). Description: microbe, parasite or virus in culture. It is filed as cell-based. The settings on record: for EC50: read-out: pVSV EC50.
Data set [6] is described as follows: in vitro. The note with it: human.
In data set [7] the test system is RABV. The note with it: cited from earlier work.
In data set [8] the target is RABV. On the set-up: species or system rabies virus. The settings on record: read-out: binding affinity (KD).
In data set [9] the test system is RABV CVS strain. In kind it is cell-based, rabies virus.
Data set [10] in a line: in vitro. The settings on record: hamster.
The next data set deals with RABV vaccine strain. The settings on record: cited from earlier work.
The next data set concerns rabies infection. The settings on record: mouse, in vivo; cited from earlier work.

Turning to `CC(C)N=c1cc2n(-c3ccc(Cl)cc3)c3ccccc3nc-2cc1Nc1ccc(Cl)cc1` [CFZG, Clofazimine gallic acid salt], in the data set with RABV CVS strain [1], the EC50 (as a rule, the midpoint of the concentration-response curve) worked out at 2.07 µM. Moreover, in the data set with Rabies virus CVS strain, the “percentage of sick mice at five dpi” value stood at 40% and the “survival rate compared with the control” value was “no improvement on the survival rate”.
`CC(C)N=c1cc2n(-c3ccc(Cl)cc3)c3ccccc3nc-2cc1Nc1ccc(Cl)cc1` [CFZS, Clofazimine salicylates] displayed a 50% effective concentration (EC50) with RABV [2] of 4.71 µM. Also, the EC50 in the data set on RABV CVS strain [1] was 1.2 µM. Further, in the data set with Rabies virus CVS strain, the “percentage of sick mice at five dpi” value is on record as 40%; the “survival at 14 dpi” value is 50% and 40%; the “survival rate at 14 dpi” value stood at 30%. Also, in the data set on Rabies virus CVS strain (po), the “redness in the skin” value was “No redness in the skin”. In addition, in the data set “in vitro [3]”, the CC50 was found to be 670 µM.
For `CCOC(=O)C1=C(COCCN)NC(C)=C(C(=O)OC)C1c1ccccc1Cl` (stereo not drawn) [Amlodipine maleate], in data set [4], the “SI pRABV” value is reported as 17.9 and the EC50 is 1.9 µM. Besides, in the data set on RABV CVS strain [1], the SICVS was 0.9 and the EC50 worked out at 37.8 µM. Further, the CC50 in the data set on 293T cells amounted to 34.9 µM. In addition, in data set [5], the EC50pVSV/EC50pRABV was found to be 13.3 and the concentration giving a half-maximal response (EC50) was 25.8 µM.
As to `CCOC(=O)C1=C(COCCN)NC(C)=C(C(=O)OC)C1c1ccccc1Cl` (stereo not drawn) [Amlodipine besylate], in data set [4], the “SI pRABV” value was found to be 26.8. Also, the EC50 in [4] (Pseudovirus, HEK-293T, 48 h) was 1.4 µM; with RABV CVS strain [1] (Lyssavirus rabies, 24 h), 37.4 µM; in data set [5] (Pseudovirus, HEK-293T), 26.4 µM. In addition, in the data set with RABV CVS strain [1], the SICVS was determined as 1.0. This compound also came in with an EC50pVSV/EC50pRABV in [5] of 19.4. In addition, in “in vitro [6]”, the CC50 was found to be 36.3 µM.
Take `N.N.[Cl][Pt][Cl]` [Cisplatin]: in data set [4], the “SI pRABV” value is recorded as above 5.1 and the EC50 is 39.1 µM. Further, in the data set on RABV CVS strain [1], the SICVS is above 3.0 and the EC50 was determined as 67 µM. The CC50 with 293T cells was above 200 µM. For the same compound, in data set [5], the EC50pVSV/EC50pRABV was above 5.1 and the EC50 is above 200 µM.
With `CCc1c2c(nc3ccc(OC(=O)N4CCC(N5CCCCC5)CC4)cc13)-c1cc3c(c(=O)n1C2)COC(=O)[C@]3(O)CC.Cl` [Irinotecan hydrochloride], in data set [4], the “SI pRABV” value is reported as above 5.9 and the EC50 is 33.6 µM. Further, in the data set on RABV CVS strain [1], the SICVS came to 1.2 and the EC50 worked out at 67 µM. The CC50 with 293T cells was above 200 µM. In [5], the EC50pVSV/EC50pRABV is above 5.9 and the concentration for a half-maximal effect (EC50) was above 200 µM.
Regarding `CC(CN1c2ccccc2S(=O)(=O)c2ccccc21)N(C)C.Cl` (stereo not drawn) [Dioxopromethazine hydrochloride], in data set [4], the “SI pRABV” value is listed as above 5.5 and the EC50 stood at 36.7 µM. In the data set with RABV CVS strain [1], the SICVS is reported as above 3.0 and the half-maximal effective concentration (EC50) came to 67 µM. Also, the CC50 in the data set with 293T cells is above 200 µM. Besides, in data set [5], the EC50pVSV/EC50pRABV is on record as above 5.5 and the EC50 was above 200 µM.
`CNC1(c2ccccc2Cl)CCCCC1=O` (stereo not drawn) [Ketamine]: in the data set on RABV [7], the “concentrations inhibiting RABV replication” value is 1 to 2 mM.
For `CC(C)N=c1cc2n(-c3ccc(Cl)cc3)c3ccccc3nc-2cc1Nc1ccc(Cl)cc1` [CFZM, Clofazimine methanesulfonate], the EC50 with RABV CVS strain [1] came to 2.5 µM. In addition, in the data set on Rabies virus CVS strain, the “survival rate compared with the control” value is on record as “no improvement on the survival rate”.
In the case of `CC(C)N=c1cc2n(-c3ccc(Cl)cc3)c3ccccc3nc-2cc1Nc1ccc(Cl)cc1` [CFZA, Clofazimine aspirin salt], in the data set with RABV CVS strain [1], the EC50 turned out to be 1.2 µM. Moreover, the “survival rate at 14 dpi” value with Rabies virus CVS strain was found to be 25%.
Turning to `CN1CCC(=C2c3ccccc3CC(=O)c3sccc32)CC1` [Ketotifen fumarate], the “SI pRABV” value in data set [4] was above 18. The EC50 in [4] (Pseudovirus, HEK-293T, 48 h) came to 10.8 µM; in the data set with RABV CVS strain [1] (Lyssavirus rabies, 24 h) it was 67 µM; in data set [5] (Pseudovirus, HEK-293T), 87.8 µM. Further, the SICVS in the data set on RABV CVS strain [1] is above 3.0. The EC50pVSV/EC50pRABV in data set [5] is recorded as 8.1. The compound also registered a CC50 in the data set “in vitro [6]” above 200 µM.
On to `CC(C)/N=c1\cc2n(-c3ccc(Cl)cc3)c3ccccc3nc-2cc1Nc1ccc(Cl)cc1` [Clofazimine], for which the EC50 with RABV [2] amounted to 4.24 µM; in data set [4] (Pseudovirus, HEK-293T, 48 h), 1.7 µM; in the data set on RABV CVS strain [1] (Lyssavirus rabies, 24 h), 2.28 µM; in the data set on RABV CVS strain [1] it was 2.28 µM; in data set [5] (Pseudovirus, HEK-293T), 10.5 µM. Besides, the “concentrations inhibiting RABV” value in the data set with RABV CVS strain [1] fell in the range of 2 to 33 µM. Also, in “physchem”, the concentration in solution (solubility) was 0.29 µg/mL (≈ 0.613 µM). Also, the equilibrium dissociation constant (Kd) (as a rule, a measure of binding affinity in units of concentration) at RABV [8] stood at 4.32 µM. The “antiviral efficacy (survival)” value in the data set with Rabies virus CVS strain is “did not show any antiviral efficacy”. Further, the “percentage of sick mice at five dpi” value with Rabies virus CVS strain is reported as 50%. The “survival at 14 dpi” value in the data set with Rabies virus CVS strain worked out at 30%. For the same compound, the “survival rate at 14 dpi” value in the data set on Rabies virus CVS strain was 10%. The results for the CC50 in “in vitro [3]”, in “in vitro [10]” and in the data set “in vitro [6]” were 144 µM, above 2200 µM and above 200 µM, respectively. Further, the “inhibitory effect on RABV infection” value in the data set on RABV CVS strain [9] is “strong inhibitory effect”. The “suppression of fluorescence activity (RABV infection)” value in the data set with RABV CVS strain [9] was “no suppression of fluorescence activity”.
In the case of `NC(=O)c1nc(F)cnc1O` [T-705, 6-fluoro-3-hydroxy-2-pyrazinecarboxamide], the EC50 with RABV vaccine strain is 32.4 µM. Also, the “survival at 14 dpi” value with Rabies virus CVS strain (po, 300 mg/kg/day) was found to be 40%. Besides, the “viral replication in the CNS” value with rabies infection is reported as “suppress viral replication in the CNS”.
As to `CCN(CC)Cc1cc(Nc2ccnc3cc(Cl)ccc23)ccc1O` [Amodiaquine hydrochloride], in data set [4], the “SI pRABV” value was 20.3. The EC50 in data set [4] (Pseudovirus, HEK-293T, 48 h) came out at 4.2 µM; in the data set with RABV CVS strain [1] (Lyssavirus rabies, 24 h) it was 14.8 µM; in [5] (Pseudovirus, HEK-293T), 24.3 µM. This compound yielded an SICVS in the data set on RABV CVS strain [1] of 5.7. The compound also returned an EC50pVSV/EC50pRABV in [5] of 5.8. In the data set “in vitro [6]”, the CC50 came out at 84.9 µM.
As for `CCCCNc1ccc(C(=O)OCCN(C)C)cc1` [Tetracaine hydrochloride], the “SI pRABV” value in data set [4] is recorded as above 3. The 50% effective concentration (EC50) was 65.8 µM in data set [4] (Pseudovirus, HEK-293T, 48 h); 67 µM with RABV CVS strain [1] (Lyssavirus rabies, 24 h); above 200 µM in data set [5] (Pseudovirus, HEK-293T). The SICVS in the data set with RABV CVS strain [1] is recorded as above 3.0. In data set [5], this compound had an EC50pVSV/EC50pRABV above 3. In “in vitro [6]”, this compound displayed a CC50 above 200 µM.
Compound `CNCCCC12CCC(c3ccccc31)c1ccccc12` [Maprotiline hydrochloride] came in with an SICVS in the data set with RABV CVS strain [1] above 4.5. This compound also registered a CC50 in the data set “in vitro [6]” of 52 µM.
Consider `CC(C)N=c1cc2n(-c3ccc(Cl)cc3)c3ccccc3nc-2cc1Nc1ccc(Cl)cc1` [CFZH, Clofazimine hydrochloride salt], for which, in the data set on RABV CVS strain [1], the EC50 came out at 1.2 µM. For the same compound, in the data set on Rabies virus CVS strain, the “survival rate compared with the control” value is recorded as “no improvement on the survival rate”.
In the case of `CN1CCC(=C2c3ccccc3CCc3sccc32)CC1` [Pizotifen], the “SI pRABV” value in data set [4] amounted to 32.3. Further, the half-maximal effective concentration (EC50) was 3.1 µM in data set [4] (Pseudovirus, HEK-293T, 48 h); 67 µM in the data set with RABV CVS strain [1] (Lyssavirus rabies, 24 h); 25.7 µM in data set [5] (Pseudovirus, HEK-293T). The SICVS in the data set with RABV CVS strain [1] is given as 1.5. In data set [5], this compound gave an EC50pVSV/EC50pRABV of 8.2. For the same compound, in “in vitro [6]”, the CC50 turned out to be 100 µM.
